Test results published in patent US11744273B2, “Sweetness enhancing volatile compositions and methods of increasing perceived sweetness of a comestible” (University of Florida Research Foundation, Inc., priority 2016, dated 2023).

System: perceived sweetness intensity
Assay: Strawberry consumer panel; initial multiple regression of volatiles against perceived sweetness intensity independent of glucose, fructose or sucrose (Table 5)
Assay type: in vivo, human
Settings: for relation to sweetness intensity independent of sugars: initial step-wise multiple regression; for FRUCTOSE t RATIO / GLUCOSE t RATIO / SUCROSE t RATIO: standard least squares; for FRUCTOSE t RATIO: sweetness intensity independent of fructose; for GLUCOSE t RATIO: sweetness intensity independent of glucose; for SUCROSE t RATIO: sweetness intensity independent of sucrose
Experimental: Step-wise multiple regressions of all volatile compounds against perceived intensity of sweetness is performed independent of either glucose, fructose, or sucrose concentration, separately (Table 5).
At least 100 grams or seven berries of each sample were removed from 4° C. dark overnight storage prior to volatile collection. Samples were homogenized in a blender prior to splitting into three 15 gram replicates for immediate capturing of volatile emission and remainder of sample frozen in N2 (I) and stored at −80° C. for later sugar and acid quantification.
Oven temperatures programmed from 40° C. (0.5 min hold) at 5° C. min^−1 to 250° C. (4 min hold). Signals captured with a flame ionization detector (FID) at 280° C. Peaks from FID signal were integrated manually with Chemstation B.04.01 software (Agilent Technologies, Santa Clara, Calif.). Volatile emission (ng gFW^−1 h^−1) calculated based on individual peak area relative to sample elution standard peak area.
All consumer panels were approved by the University of Florida Institutional Review Board. […] Ages of panelist ranged from 18 to 71, with a median age of 24. Panelists self-classified themselves as 98 White or Caucasian, 11 Black or African-American, 1 Native American, Alaska Native or Aleutian, 41 Asian/Pacific Islander, and 15 Other. […] Fresh, fully-ripe strawberry fruit was removed from overnight 4° C. dark storage and allowed to warm to room temperature prior to sensory analysis. Each panelist was given one to two whole strawberries for evaluation, depending on cultivar availability. Panelist took a bite of each sample, chewed, and swallowed it. Ratings for overall liking and liking for texture were scaled on hedonic general labeled magnitude scale (gLMS) in the context of all pleasure/displeasure experiences. […] Scales were employed to mediate valid comparisons across subjects and sessions.
For the first analysis, individual volatile compound concentrations were regressed using the “enter” method in SPSS Statistics (IBM Corp, Armonk, N.Y., USA).

Structure (SMILES)	relation to sweetness intensity independent of sugars	FRUCTOSE t RATIO	GLUCOSE t RATIO	SUCROSE t RATIO
C=CC(=O)CC [1-penten-3-one]	enhance sweetness intensity	–	–	–
CCCCCC=O [66-25-1]	–	1.229	1.178	0.21
CCCCCO [71-41-0]	–	0.448	0.296	1.938
CCCCC(=O)C(C)=O [96-04-8]	–	0.142	0.002	−0.646
CCC(=O)CC [96-22-0]	–	1.82	1.576	0.912
CCCCC(CC)COC(C)=O (stereo not shown) [103-09-3]	–	0.172	0.21	−1.053
CCCCC(CC)CO (stereo not shown) [104-76-7]	–	1.189	0.982	2.046
CCOC(=O)CC [105-37-3]	–	−0.623	−0.674	1.964
CCCOC(=O)CCC [105-66-8]	–	0.88	0.638	2.421
CCCCCCCC(=O)OCC [106-32-1, ethyl octanoate]	negatively related to sweetness	–	–	–
CC(=O)CC(C)C [108-10-1, 4-Methyl-2-pentanone]	negatively related to sweetness	–	–	–
CCCCOC(=O)CC(C)C [109-19-3]	–	2.005	1.954	1.662
CCCCOC(=O)CCC [109-21-7]	–	2.181	1.961	1.65
CCCOC(C)=O [109-60-4]	–	−0.491	−0.454	−0.224
CCCCCCCCCC(=O)OCC [110-38-3]	–	0.281	0.055	2.621
CCCCCCCCOC(=O)CCC [110-39-4]	–	0.96	0.814	2.645
CCCCC=O [110-62-3]	–	−0.572	−0.568	0.997
CCCCCCC=O [111-71-7]	–	2.599	2.283	1.342
CCCCCCCCOC(C)=O [112-14-1]	–	0.413	0.284	2.292
CCCCCC(=O)OCC [123-66-0]	–	0.066	−0.001	1.064
CC(=O)OCCC(C)C [123-92-2]	–	−0.725	−0.771	0.108
CCCCCCCC=O [124-13-0]	–	0.871	0.685	0.169
CCCCCCCCC=O [124-19-6]	–	3.696	3.402	0.226
Cc1cc(C(C)(C)C)c(O)c(C(C)(C)C)c1 [128-37-0]	–	−0.856	−1.17	0.482
COC(=O)c1ccccc1N [134-20-3]	–	−0.009	0.2	1.386
CC(=O)OCc1ccccc1 [140-11-4]	–	−0.361	−0.513	−1.357
CCCCC(=O)OCC [539-82-2]	–	−0.48	−0.802	2.273
CCCCCOC(=O)CCC [540-18-1, pentyl butyrate]	enhance sweetness intensity	–	–	–
CC1(C)C2CC=C(C=O)C1C2 (stereo not shown) [564-94-3]	–	2.588	2.455	−1.322
CCCC(=O)CC [589-38-8]	–	−0.217	−0.427	0.592
